According to paper PMC4374918, “Interaction of ATP with a Small Heat Shock Protein from Mycobacterium leprae: Effect on Its Structure and Function” (PLoS Neglected Tropical Diseases, 2015):

Legend:
HSP18 [1] = target: T1, HSP18 (Mycobacterium leprae, UniProt P12809); assay: SPR (Biacore T200, HSP18 immobilized on CM5 chip); assay type: binding
T1 construct: recombinant wild-type M. leprae HSP18

HSP18 [2] = target: T1, HSP18; assay: SPR (Biacore T200, HSP18 immobilized on CM5 chip); also TNP-ATP displacement and thermal stabilization; assay type: binding
HSP18 [3] = target: T1, HSP18; assay: fluorescence titration, Scatchard analysis; assay type: binding
[4] = target: the molecule itself; assay: dynamic light scattering; HSP18 0.5 mg/ml in 50 mM phosphate buffer pH 7.5, 25°C, with or without 1 mM ATP; hydrodynamic radius of the oligomers

Nc1ncnc2c1ncn2[C@@H]1O[C@H](CO[P@](=O)(O)O[P@](=O)(O)O[P@@](=O)(O)S)[C@@H](O)[C@H]1O [ATP-γS]
Kd (HSP18 [1]): 330 nM

Nc1ncnc2c1ncn2[C@@H]1O[C@H](COP(=O)(O)OP(=O)(O)OP(=O)(O)O)[C@@H](O)[C@H]1O [ATP]
Kd (HSP18 [2]): 590 nM

Nc1ncnc2c1ncn2[C@@H]1O[C@H](COP(=O)(O)OP(=O)(O)OP(=O)(O)O)[C@H]2OC3(O[C@H]21)C([N+](=O)[O-])=CC(=[N+]([O-])[O-])C=C3[N+](=O)[O-] (stereo partly shown) [TNP-ATP]
Kd (HSP18 [3]): 730 nM

B1: Mycobacterium leprae HSP18 (18 kDa antigen, small heat shock protein) (natural protein, UniProt P12809 1-148, looked up)
chain: MLMRTDPFRELDRFAEQVLGTSARPAVMPMDAWREGEEFVVEFDLPGIKADSLDIDIERNVVTVRAERPGVDPDREMLAAERPRGVFNRQLVLGENLDTERILASYQEGVLKLSIPVAERAKPRKISVDRGNNGHQTINKTAHEIIDA
notes: M. leprae HSP18 (18 kDa antigen), wild-type; source: recombinant wild-type, expressed and purified as described previously [5]; copies: 29
binding result [4]: binds
